Test results reported in patent publication US9200008B2 (ASKA PHARMACEUTICAL CO., LTD., priority 2010, dated 2015).

Test system: Human prostate cancer cell lines (PC-3 cells)
Test: Measurement of cell death-inducing activity (Test Example 1)
Format: cell-based
Settings: PC-3, 48 h, 48 hours after addition, tested at 10, 1, 0.1, 0.025 and 0.00625 μmol/L, qualitative evaluation of 10 fields, read-out: Concentration showing the cell death-inducing activity (cell death-inducing rate not less than 40%)
Outline: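 Compound treatment lasted 48 h at 10 to 0.00625 μmol/L (five levels, DMSO as control) on PC-3 cells pre-cultured 48 h at 37 °C, 5% CO2 after seeding at 1×10^5 cells/well. A cell death-inducing rate of 40% or more counted as active.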

Row | Structure (SMILES) | minimal effective concentration [µM]
1 | CCn1cnc2cc(COC(=O)Nc3sc(-c4ccc(OC)cc4OC)nc3C)ccc21 [Example 9-61] | 0.00625
2 | COc1ccccc1-c1cc(COC(=O)Nc2ccc3c(c2)ncn3C)n(C)n1 [Example 13-76] | 0.025
3 | COc1ccc(/C=N/NC(=O)c2oc(-c3ccccc3OC)nc2C)cc1C [Example 26-3] | 10
4 | COc1cc(F)ccc1-c1cc(COC(=O)Nc2ccc3c(c2)nc2n3CCC2)n(C)n1 [Example 13-106] | 0.00625
5 | CCn1cc2cc(COC(=O)Nc3sc(-c4ccc(F)cc4C)nc3C)ccc2n1 [Example 9-158] | 1
6 | Cc1nc(-c2ccc(Cl)s2)sc1NC(=O)OCc1ccc2c(c1)ncn2C [Example 9-193] | 1
7 | Cc1cc(Cl)ccc1-c1nc(C)c(COC(=O)Nc2ccc3c(c2)ncn3C)s1 [Example 13-10] | 0.00625
8 | CCn1nc(-c2ccc(C)cc2OC)cc1NC(=O)OCc1ccc2c(c1)ncn2CC [Example 9-229] | 0.025
9 | CCn1cnc2cc(NC(=O)OCc3sc(-c4ccc(Cl)cc4OC)nc3C)ccc21 [Example 13-13] | 0.1
10 | COc1cc(Cl)ccc1-c1nc(C)c(NC(=O)OCc2ccc3c(c2)ncn3C(C)C)s1 [Example 9-71] | 0.025
11 | CCCc1nc(-c2ccc(C)cc2C)sc1NC(=O)OCc1ccc2c(c1)ncn2C [Example 9-184] | 1
12 | CCc1nc(-c2ccc(Cl)cc2OC)sc1NC(=O)OCc1ccc2c(c1)nc1n2CCC1 [Example 9-170] | 0.025
13 | O=C(Nc1ccc2c(c1)nc1n2CCCC1)OCc1cc(-c2ccc(Cl)cc2Cl)ns1 [Example 47-8] | 1
14 | COc1ccc(/C=N/NC(=O)c2sc(-c3ccc(Cl)cc3)nc2C(F)(F)F)cc1O [Example 23-18] | 10
15 | COc1cc(Cl)ccc1-c1cc(NC(=O)OCc2ccc3c(c2)nc2n3CCCC2)n(C)n1 [Example 9-267] | 0.025
16 | CCn1nc(-c2ccc(Cl)cc2OC)cc1NC(=O)OCc1ccc2c(c1)ncn2C [Example 9-222] | 0.00625
17 | CCn1ncc2cc(COC(=O)Nc3sc(-c4ccc(F)cc4C)nc3C)ccc21 [Example 9-140] | 0.025
18 | CCn1nc(-c2ccc(F)cc2OC)cc1COC(=O)Nc1ccc2c(c1)ncn2CC [Example 13-83] | 0.025
19 | COc1ccc(/C=N/NC(=O)c2sc(-c3ccccc3Cl)nc2C)cc1O [Example 23-2] | 0.1
20 | CCn1nnc2cc(COC(=O)Nc3sc(-c4ccc(C)cc4C)nc3C)ccc21 [Example 9-26] | 0.025
21 | CCn1cnc2cc(NC(=O)OCc3cc(-c4ccc(C)cc4C)nn3C)ccc21 [Example 13-92] | 0.00625
22 | Cc1cc(/C=N/NC(=O)c2sc(-c3ccc(Cl)cc3C)nc2C)ccc1O [Example 23-47] | 1
23 | COc1cc(Cl)ccc1-c1nc(C)c(C(=O)NNCc2cc(C)c(O)c(C)c2)s1 [Example 17-3, 2-(4-Chloro-2-methoxyphenyl)-4-methylthiazole-5-carboxylic acid N′-(4-hydroxy-3,5-dimethylbenzyl)hydrazide] | 1
24 | CCc1nc(-c2ccccc2OC)sc1NC(=O)OCc1ccc2c(c1)nc1n2CCCC1 [Example 9-351] | 1

Row | Structure (SMILES) | minimal effective concentration [µM]
25 | CCn1nnc2cc(COC(=O)Nc3sc(-c4ccc(Cl)cc4OC)nc3C)ccc21 [Example 9-24] | 0.00625
26 | CCc1nc(-c2ccc(F)cc2C)sc1NC(=O)OCc1ccc2c(c1)ncn2C [Example 9-163] | 0.025
27 | CCn1nc(-c2ccc(C)cc2OC)cc1NC(=O)OCc1ccc2c(c1)ncn2C [Example 9-227] | 0.00625
28 | COc1cc(Cl)ccc1-c1cc(NC(=O)OCc2ccc3c(c2)ncn3C)nn1C [Example 9-309] | 10
29 | COc1cc(Cl)ccc1-c1nc(C)c(C(=O)N/N=C/c2ccc3c(c2)CCO3)s1 [Example 23-83] | 0.1
30 | COc1cc(Cl)ccc1-c1cc(COC(=O)Nc2ccc3c(c2)nc2n3CCOC2)nn1C [Example 13-144] | 10
31 | CCn1ncc2cc(NC(=O)OCc3cc(-c4ccc(Cl)cc4OC)nn3C)ccc21 [Example 13-129] | 0.025
32 | COc1ccc(/C=N/NC(=O)c2sc(-c3cccc(F)c3)nc2C)cc1 [Example 23-66] | 1
33 | COc1ccc(/C=N/NC(=O)c2sc(-c3ccc(Cl)cc3OC)nc2C)cc1C [Example 23-82] | 0.1
34 | COc1cc(C)ccc1-c1nc(C)c(NC(=O)OCc2ccc3c(c2)nc2n3CCC(C)C2)s1 (stereo not shown) [Example 9-121] | 1
35 | CCn1cnc2cc(COC(=O)Nc3sc(-c4ccc(C)cc4)nc3C)ccc21 [Example 9-55] | 10
36 | Cc1nc(-c2ccc(F)cc2)sc1NC(=O)OCc1ccc2c(c1)ncn2C [Example 9-45] | 1
37 | CCc1ccccc1-c1nc(C)c(NC(=O)OCc2ccc3c(c2)nc2n3CCCC2)s1 [Example 9-109] | 1
38 | COc1ccc(-c2nc(C)c(C(=O)N/N=C/c3ccc(O)c4ccccc34)s2)cc1 [Example 23-113] | 10
39 | COc1cc(/C=N/NC(=O)c2sc(-c3ccc(Cl)cc3OC)nc2C)ccc1O [Example 23-81] | 10
40 | CCCn1cnc2cc(NC(=O)OCc3sc(-c4ccc(C)cc4C)nc3C)ccc21 [Example 13-19] | 1
41 | CCc1nc2cc(COC(=O)Nc3sc(-c4ccc(C)cc4C)nc3C)ccc2n1C [Example 9-83] | 0.1
42 | Cc1ccccc1-c1nc(C)c(NC(=O)OCc2ccc3c(c2)nnn3C)s1 [Example 9-12] | 1
43 | CCc1nc(-c2ccc(C)cc2C)sc1NC(=O)OCc1ccc2c(cnn2CC)c1 [Example 9-175] | 0.1
44 | COc1ccc(/C=N/NC(=O)c2sc(C3CCCCC3)nc2C)cc1O [Example 23-128] | 1
45 | COc1cc(Cl)ccc1-c1cc(C(=O)N/N=C/c2cc(C)c(O)c(C)c2)[nH]n1 [Example 22-9] | 0.1
46 | CCn1ncc2cc(/C=N/NC(=O)c3cc(-c4ccc(Cl)cc4OC)ns3)ccc21 [Example 49-8] | 1
47 | Cc1ccc(C)c(-c2nc(C)c(C(=O)N/N=C/c3cc(C)c(O)c(C)c3)s2)c1 [Example 23-127] | 1
48 | CCn1nc(-c2ccc(C)cc2C)cc1NC(=O)OCc1ccc2c(c1)nc1n2CCOC1 [Example 9-252] | 0.1

Row | Structure (SMILES) | minimal effective concentration [µM]
49 | CCCn1cnc2cc(COC(=O)Nc3sc(-c4ccc(Cl)cc4OC)nc3C)ccc21 [Example 9-67] | 0.025
50 | Cc1ccc(-c2nc(C)c(NC(=O)OCc3ccc4c(c3)nnn4C)s2)c(C)c1 [Example 9-17] | 0.025
51 | COc1cc(F)ccc1-c1nc(C)c(NC(=O)OCc2ccc3c(c2)nc2n3C(C)CCC2)s1 (stereo not shown) [Example 9-116] | 10
52 | COc1ccc(/C=N/NC(=O)c2sc(-c3ccc(F)cc3)nc2C)cc1O [Example 23-73] | 0.1
53 | Cc1cc(Cl)ccc1-c1nc(C)c(NC(=O)OCc2ccc3nn(C)cc3c2)s1 [Example 9-150] | 0.025
54 | CCn1cnc2cc(COC(=O)Nc3cc(-c4ccc(Cl)cc4OC)ns3)ccc21 [Example 45-3] | 10
55 | COc1cc(C)ccc1-c1cc(NC(=O)OCc2ccc3c(cnn3C)c2)n(C)n1 [Example 9-283] | 0.025
56 | COc1cc(C)ccc1-c1nc(C)c(NC(=O)OCc2ccc3c(c2)nc2n3CCC2)s1 [Example 9-104] | 0.1
57 | COc1ccccc1-c1cc(NC(=O)OCc2ccc3nn(C)cc3c2)n(C)n1 [Example 9-288] | 1
58 | CCc1nc(-c2ccc(F)cc2C)sc1COC(=O)Nc1ccc2c(c1)nc1n2CCSC1 [Example 43-4] | 1
59 | Cn1nc(NC(=O)OCc2ccc3c(c2)ncn3C)cc1-c1ccccc1 [Example 9-306] | 10
60 | COc1ccccc1-c1nc(C)c(C(=O)N/N=C/c2ccc3c(c2)OCCN3C)s1 [Example 23-98] | 0.1
61 | COc1cc(Cl)ccc1-c1nc(C)c(NC(=O)OCc2ccc3c(c2)nc2n3CCSC2)s1 [Example 40-1, [2-(4-Chloro-2-methoxyphenyl)-4-methylthiazol-5-yl]carbamic acid 3,4-dihydro-1H-2-thia-4a,9-diazafluoren-7-ylmethyl ester] | 0.025
62 | COc1ccccc1-c1nc(C)c(NC(=O)OCc2ccc3c(cnn3C)c2)s1 [Example 9-126] | 0.1
63 | CCn1nc(-c2ccc(C)cc2OC)cc1NC(=O)OCc1ccc2c(c1)nc1n2CCCC1 [Example 9-270] | 0.1
64 | CCc1nc(-c2ccc(Cl)cc2OC)sc1NC(=O)OCc1ccc2c(cnn2CC)c1 [Example 9-173] | 0.025
65 | CCn1nc(-c2ccc(F)cc2OC)cc1COC(=O)Nc1ccc2c(c1)nc1n2CCOC1 [Example 13-98] | 0.025
66 | CCc1nc(-c2ccc(C)cc2C)sc1NC(=O)OCc1ccc2c(c1)nc(C)n2C [Example 9-375] | 0.1
67 | O=C(N/N=C/c1ccc([N+](=O)[O-])c(O)c1)c1cc(-c2ccc(Cl)cc2Cl)n[nH]1 [Example 21-15] | 10
68 | COc1cc(Cl)ccc1-c1nc(C)c(NC(=O)OCc2ccc3nn(C)cc3c2)s1 [Example 9-144] | 0.025
69 | CCn1nc(-c2ccccc2OC)cc1COC(=O)Nc1ccc2c(c1)ncn2C [Example 13-77] | 0.1
70 | COc1cc(Cl)ccc1-c1cc(COC(=O)Nc2ccc3c(c2)nc2n3CCOC2)n(C)n1 [Example 13-99] | 0.00625
